{"source": "paper PMC3703287", "about": "“Analgesic effect of a mixed T-type channel inhibitor/CB2 receptor agonist” (Molecular Pain, 2013)", "key": {"human CB2 receptor": {"molecular_target": "T1, human CB2 receptor (Homo sapiens, UniProt P34972)", "T1 construct": "gene CNR2", "T1 sequence (P34972 whole entry)": "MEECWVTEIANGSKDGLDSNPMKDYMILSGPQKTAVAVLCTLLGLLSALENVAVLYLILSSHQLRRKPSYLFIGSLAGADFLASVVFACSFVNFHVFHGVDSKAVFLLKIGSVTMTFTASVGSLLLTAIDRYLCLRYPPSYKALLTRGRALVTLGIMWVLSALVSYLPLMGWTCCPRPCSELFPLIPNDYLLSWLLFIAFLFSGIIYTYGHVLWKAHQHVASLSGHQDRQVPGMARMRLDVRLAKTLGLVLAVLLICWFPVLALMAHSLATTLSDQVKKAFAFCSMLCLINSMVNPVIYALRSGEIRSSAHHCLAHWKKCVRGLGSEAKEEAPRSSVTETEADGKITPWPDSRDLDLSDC", "test": "[3H]CP55940 radioligand competition, membranes of HEK293 cells expressing human CB2; low-efficacy agonist in GTPγ[…] assay ([…] at […])", "assay_type": "binding"}, "CaV3.1": {"molecular_target": "T2, CaV3.1 (Homo sapiens, UniProt O43497)", "T2 construct": "gene CACNA1G; α1 subunit", "T2 sequence (O43497 whole entry)": "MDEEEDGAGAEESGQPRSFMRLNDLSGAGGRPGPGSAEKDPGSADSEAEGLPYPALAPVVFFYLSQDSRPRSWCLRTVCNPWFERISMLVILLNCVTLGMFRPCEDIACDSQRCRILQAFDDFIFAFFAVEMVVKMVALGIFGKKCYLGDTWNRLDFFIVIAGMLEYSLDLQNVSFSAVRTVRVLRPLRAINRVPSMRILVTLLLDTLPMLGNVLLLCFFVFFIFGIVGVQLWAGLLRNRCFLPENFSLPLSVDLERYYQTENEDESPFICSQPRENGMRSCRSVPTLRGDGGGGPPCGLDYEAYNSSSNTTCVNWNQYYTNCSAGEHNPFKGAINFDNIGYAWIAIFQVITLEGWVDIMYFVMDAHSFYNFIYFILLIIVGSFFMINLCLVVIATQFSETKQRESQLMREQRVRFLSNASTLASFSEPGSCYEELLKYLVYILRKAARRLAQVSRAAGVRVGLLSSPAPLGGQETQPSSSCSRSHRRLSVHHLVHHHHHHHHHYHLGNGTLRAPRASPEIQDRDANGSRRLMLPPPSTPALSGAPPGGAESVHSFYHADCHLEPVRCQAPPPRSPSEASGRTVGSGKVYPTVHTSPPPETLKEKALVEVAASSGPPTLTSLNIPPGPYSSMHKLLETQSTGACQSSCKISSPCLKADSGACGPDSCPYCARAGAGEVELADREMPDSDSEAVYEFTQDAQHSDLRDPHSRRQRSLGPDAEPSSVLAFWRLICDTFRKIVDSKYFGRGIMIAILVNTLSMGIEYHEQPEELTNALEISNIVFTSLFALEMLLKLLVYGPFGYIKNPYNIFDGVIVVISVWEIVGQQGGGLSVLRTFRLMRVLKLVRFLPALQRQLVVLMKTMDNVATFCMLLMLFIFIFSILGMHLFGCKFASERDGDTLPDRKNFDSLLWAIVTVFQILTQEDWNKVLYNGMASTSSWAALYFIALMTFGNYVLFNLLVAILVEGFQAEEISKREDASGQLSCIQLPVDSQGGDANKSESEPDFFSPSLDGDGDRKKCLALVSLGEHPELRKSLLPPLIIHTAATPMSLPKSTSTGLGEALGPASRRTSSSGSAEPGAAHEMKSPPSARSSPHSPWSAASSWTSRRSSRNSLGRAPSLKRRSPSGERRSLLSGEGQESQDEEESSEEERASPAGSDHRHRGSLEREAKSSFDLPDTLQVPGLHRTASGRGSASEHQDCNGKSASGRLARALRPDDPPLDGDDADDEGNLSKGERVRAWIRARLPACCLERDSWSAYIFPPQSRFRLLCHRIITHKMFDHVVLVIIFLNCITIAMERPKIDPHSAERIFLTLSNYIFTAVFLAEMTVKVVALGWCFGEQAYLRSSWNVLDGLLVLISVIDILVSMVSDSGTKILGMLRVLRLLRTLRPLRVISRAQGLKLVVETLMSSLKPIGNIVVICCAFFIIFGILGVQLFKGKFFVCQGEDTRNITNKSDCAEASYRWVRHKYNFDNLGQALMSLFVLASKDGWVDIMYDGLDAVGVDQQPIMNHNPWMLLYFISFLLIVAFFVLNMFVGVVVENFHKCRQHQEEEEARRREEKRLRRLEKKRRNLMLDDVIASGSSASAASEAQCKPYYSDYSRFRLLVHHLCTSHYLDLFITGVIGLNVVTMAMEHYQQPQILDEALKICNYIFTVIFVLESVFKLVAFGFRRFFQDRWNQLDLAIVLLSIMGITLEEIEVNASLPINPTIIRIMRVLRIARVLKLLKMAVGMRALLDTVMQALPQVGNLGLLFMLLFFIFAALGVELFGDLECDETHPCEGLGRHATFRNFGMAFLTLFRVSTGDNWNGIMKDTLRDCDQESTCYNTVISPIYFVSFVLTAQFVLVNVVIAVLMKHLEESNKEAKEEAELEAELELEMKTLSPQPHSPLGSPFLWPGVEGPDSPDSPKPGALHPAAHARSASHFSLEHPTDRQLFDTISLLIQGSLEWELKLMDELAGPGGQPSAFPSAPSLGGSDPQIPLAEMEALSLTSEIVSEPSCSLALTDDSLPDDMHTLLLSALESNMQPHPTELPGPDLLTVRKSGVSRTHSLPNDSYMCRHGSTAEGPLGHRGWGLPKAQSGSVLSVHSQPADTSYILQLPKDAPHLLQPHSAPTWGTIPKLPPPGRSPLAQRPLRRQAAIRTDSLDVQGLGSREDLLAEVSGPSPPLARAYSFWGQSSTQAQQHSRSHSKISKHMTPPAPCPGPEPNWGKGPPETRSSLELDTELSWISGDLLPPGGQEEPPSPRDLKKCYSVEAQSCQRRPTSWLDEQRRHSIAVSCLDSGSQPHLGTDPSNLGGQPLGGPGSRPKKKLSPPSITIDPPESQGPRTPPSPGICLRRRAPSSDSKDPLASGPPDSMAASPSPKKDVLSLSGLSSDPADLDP", "test": "whole-cell patch clamp, […] NMP-181, tsA-201 cells transiently expressing human CaV3.[…]", "assay_type": "cell-based"}, "CaV3.2": {"molecular_target": "T3, CaV3.2 (Homo sapiens, UniProt O95180)", "T3 construct": "gene CACNA1H; α1 subunit", "T3 sequence (O95180 whole entry)": "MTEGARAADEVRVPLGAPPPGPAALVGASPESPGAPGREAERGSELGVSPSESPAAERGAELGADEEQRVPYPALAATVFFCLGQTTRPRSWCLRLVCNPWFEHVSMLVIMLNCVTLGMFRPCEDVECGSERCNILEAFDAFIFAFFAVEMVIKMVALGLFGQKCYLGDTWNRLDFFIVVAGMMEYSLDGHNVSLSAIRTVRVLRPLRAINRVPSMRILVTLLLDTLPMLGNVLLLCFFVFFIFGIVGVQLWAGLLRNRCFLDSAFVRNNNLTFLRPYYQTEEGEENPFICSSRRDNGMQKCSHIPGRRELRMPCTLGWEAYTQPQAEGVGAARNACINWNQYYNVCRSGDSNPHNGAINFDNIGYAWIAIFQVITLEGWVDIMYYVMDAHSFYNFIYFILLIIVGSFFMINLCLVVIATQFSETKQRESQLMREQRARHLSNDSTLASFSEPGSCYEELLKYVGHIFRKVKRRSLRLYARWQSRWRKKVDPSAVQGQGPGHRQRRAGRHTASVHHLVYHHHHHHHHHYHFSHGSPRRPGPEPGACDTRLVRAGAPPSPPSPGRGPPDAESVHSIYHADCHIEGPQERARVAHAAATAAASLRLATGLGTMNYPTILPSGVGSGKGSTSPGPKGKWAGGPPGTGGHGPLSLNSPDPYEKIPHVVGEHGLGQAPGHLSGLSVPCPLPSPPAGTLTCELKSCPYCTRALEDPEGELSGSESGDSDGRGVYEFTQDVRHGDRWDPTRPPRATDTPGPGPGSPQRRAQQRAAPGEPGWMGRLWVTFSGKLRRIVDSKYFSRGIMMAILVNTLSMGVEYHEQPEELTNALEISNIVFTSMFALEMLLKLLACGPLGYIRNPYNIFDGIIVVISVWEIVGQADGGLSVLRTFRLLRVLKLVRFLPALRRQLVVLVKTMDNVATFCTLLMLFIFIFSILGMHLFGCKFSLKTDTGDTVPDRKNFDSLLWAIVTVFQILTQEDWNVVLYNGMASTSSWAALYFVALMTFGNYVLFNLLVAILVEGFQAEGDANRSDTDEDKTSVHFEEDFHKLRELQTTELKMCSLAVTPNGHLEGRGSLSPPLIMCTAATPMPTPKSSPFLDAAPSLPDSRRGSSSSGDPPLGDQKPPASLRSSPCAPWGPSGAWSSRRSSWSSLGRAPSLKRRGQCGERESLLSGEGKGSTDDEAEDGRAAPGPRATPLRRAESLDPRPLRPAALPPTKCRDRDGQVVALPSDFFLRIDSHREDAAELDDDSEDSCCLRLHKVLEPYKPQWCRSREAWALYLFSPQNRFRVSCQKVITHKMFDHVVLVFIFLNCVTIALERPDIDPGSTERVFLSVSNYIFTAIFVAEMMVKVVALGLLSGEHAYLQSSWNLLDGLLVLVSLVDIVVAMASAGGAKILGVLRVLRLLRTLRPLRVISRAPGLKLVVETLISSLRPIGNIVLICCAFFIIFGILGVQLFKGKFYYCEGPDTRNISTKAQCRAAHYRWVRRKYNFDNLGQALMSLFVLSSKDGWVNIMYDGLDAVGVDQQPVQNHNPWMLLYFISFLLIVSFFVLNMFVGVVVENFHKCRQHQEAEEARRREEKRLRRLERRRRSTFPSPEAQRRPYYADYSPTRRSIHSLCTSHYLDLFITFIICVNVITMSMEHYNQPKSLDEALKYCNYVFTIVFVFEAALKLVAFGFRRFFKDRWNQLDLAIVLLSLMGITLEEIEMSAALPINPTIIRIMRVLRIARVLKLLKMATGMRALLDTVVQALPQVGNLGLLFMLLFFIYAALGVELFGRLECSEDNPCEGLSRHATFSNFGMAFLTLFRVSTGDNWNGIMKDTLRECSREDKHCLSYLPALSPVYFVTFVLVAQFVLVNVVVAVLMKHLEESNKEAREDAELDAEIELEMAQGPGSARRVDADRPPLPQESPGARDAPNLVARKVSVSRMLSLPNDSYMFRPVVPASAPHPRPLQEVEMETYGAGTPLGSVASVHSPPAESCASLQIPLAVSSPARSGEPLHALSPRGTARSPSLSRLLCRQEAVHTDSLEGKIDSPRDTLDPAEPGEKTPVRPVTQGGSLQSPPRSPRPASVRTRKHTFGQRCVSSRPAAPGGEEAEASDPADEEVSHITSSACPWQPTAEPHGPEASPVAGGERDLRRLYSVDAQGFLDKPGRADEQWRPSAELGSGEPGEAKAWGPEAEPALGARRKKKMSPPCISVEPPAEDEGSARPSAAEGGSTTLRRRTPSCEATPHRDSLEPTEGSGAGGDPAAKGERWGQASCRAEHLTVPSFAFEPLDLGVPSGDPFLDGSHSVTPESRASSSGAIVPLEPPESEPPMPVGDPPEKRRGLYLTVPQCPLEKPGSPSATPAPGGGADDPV", "test": "whole-cell patch clamp, tsA-201 cells transiently expressing human CaV3.[…]", "assay_type": "cell-based"}}}
{"compound": "CCCCCn1c2ccccc2c2cc(C(=O)OCCN(C)C)ccc21", "note": "[NMP-181]", "values": [{"measurement": "Ki", "setting": "human CB2 receptor", "value": "123 ± 28", "unit": "nM"}, {"measurement": "whole-cell patch clamp, 10 μM NMP-181, tsA-201 cells transiently expressing huma", "setting": "CaV3.1", "value": "the degree of inhibition was similar for all three CaV3 isoforms"}, {"measurement": "IC50", "setting": "CaV3.2", "value": 4600, "unit": "nM"}]}
